Assay results: patent US12128035B2, “Activating pyruvate kinase R” (Novo Nordisk Health Care AG, priority 2021, dated 2024)

Test system: ATP blood levels
Assay: Phase 1 SAD/MAD: blood ATP (LC-MS/MS) in healthy volunteers
Format: in vivo, human
Protocol: In this study, SAD/MAD cohorts are randomized (3 to 1) to receive Compound 1 or placebo (P). Compound 1 was evaluated first in 4 healthy SAD cohorts and 4 healthy MAD (14-day dosing period) cohorts. Based on the safety, and PK/PD profile from HS, Compound 1 is then evaluated in 1 SCD SAD cohort and 2 SCD MAD cohorts. Specifically, based on the safety and pharmacokinetic/pharmacodynamics (PK/PD) profile in healthy volunteer studies, Compound 1 is evaluated in patients (pts) with SCD, first in a single dose (SD or SAD) cohort and then in multiple-dose (MD or MAD) cohorts (14-day and 12-week). Safety assessments include AEs, vital signs, ECGs and laboratory parameters. PK/PD blood sampling was performed on Day 1 (SAD/MAD) and Day 14 (MAD) and up to 72 h after the last dose and at the end-of-study visit. PD parameters included 2,3-DPG, ATP, and p50 in all cohorts with additional PD studies (including oxygen scan) performed only in the SCD cohorts. PD parameters included 2,3-DPG, ATP, p50, RBC deformability with controlled deoxygenation and reoxygenation (Lorrca® oxygen scan) and varying osmolality (Lorrca® osmoscan)). To maintain study blind, pt identifiers were removed when needed.
In the MAD cohorts, the subjects' blood ATP levels were measured […] by a qualified LC-MS/MS method for the quantitation of ATP in blood. […] Table 20A reports the median percentage change in blood ATP levels, relative to baseline, measured over time after the first dose on days 1 and 14 in healthy volunteers who received daily doses of Compound 1 (100 mg BID, 200 mg BID, 300 mg BID, or 400 mg QD) or placebo for 14 days. Table 20B reports the mean percentage change in ATP blood levels, relative to baseline, measured over time after the first dose on days 1 and 14 in healthy volunteers who received daily doses of Compound 1 (100 mg BID, 200 mg BID, 300 mg BID, or 400 mg QD) for 14 days.
The following procedures are employed for the analysis of ATP and 2,3-DPG in human whole blood K2EDTA using a protein precipitation extraction procedure and analysis by LC-MS/MS.
The following procedures are used for sample extraction prior to analysis via LC-MS/MS. 15.0 μL of the calibration standards, quality controls, matrix blanks, and samples are aliquoted into a 96-well plate. 50.0 μL of the internal standard spiking solution is added to all samples on the plate, with the exception of the matrix blank samples; 50.0 μL of water is added to the matrix blank samples. Subsequently, 150 μL of water is added to all samples on the plate. The plate is then covered and agitated by vortex at high speed for ten minutes, after which 750 μL of methanol is added to all samples on the plate. The plate is covered and agitated by vortex for approximately 1 minute. The plate is then centrifuged at approximately 3500 RPM at approximately 4° C. for five minutes. After centrifugation, a liquid handler is used to transfer 50 μL of each sample to a new 96-well plate, and 200 μL of acetonitrile is added to all samples on the plate. The newly prepared plate is covered and agitated by vortex for approximately 1 minute. The plate is then centrifuged at approximately 3500 RPM at approximately 4° C. for 2 minutes.

[1] = HV 100 mg BID, Day 1, 0 h after first daily dose
[2] = HV 100 mg BID, Day 1, 6 h after first daily dose
[3] = HV 100 mg BID, Day 1, 8 h after first daily dose
[4] = HV 100 mg BID, Day 1, 12 h after first daily dose
[5] = HV 100 mg BID, Day 1, 16 h after first daily dose
[6] = HV 100 mg BID, Day 1, 24 h after first daily dose
[7] = HV 100 mg BID, Day 14, 0 h after first daily dose
[8] = HV 100 mg BID, Day 14, 6 h after first daily dose
[9] = HV 100 mg BID, Day 14, 8 h after first daily dose
[10] = HV 100 mg BID, Day 14, 12 h after first daily dose
[11] = HV 100 mg BID, Day 14, 16 h after first daily dose
[12] = HV 100 mg BID, Day 14, 24 h after first daily dose
[13] = HV 100 mg BID, Day 14, 48 h after first daily dose
[14] = HV 100 mg BID, Day 14, 72 h after first daily dose
[15] = HV 200 mg BID, Day 1, 0 h after first daily dose
[16] = HV 200 mg BID, Day 1, 6 h after first daily dose
[17] = HV 200 mg BID, Day 1, 8 h after first daily dose
[18] = HV 200 mg BID, Day 1, 12 h after first daily dose
[19] = HV 200 mg BID, Day 1, 16 h after first daily dose
[20] = HV 200 mg BID, Day 1, 24 h after first daily dose
[21] = HV 200 mg BID, Day 14, 0 h after first daily dose
[22] = HV 200 mg BID, Day 14, 6 h after first daily dose
[23] = HV 200 mg BID, Day 14, 8 h after first daily dose
[24] = HV 200 mg BID, Day 14, 12 h after first daily dose
[25] = HV 200 mg BID, Day 14, 16 h after first daily dose
[26] = HV 200 mg BID, Day 14, 24 h after first daily dose
[27] = HV 200 mg BID, Day 14, 48 h after first daily dose
[28] = HV 200 mg BID, Day 14, 72 h after first daily dose
[29] = HV 300 mg BID, Day 1, 0 h after first daily dose
[30] = HV 300 mg BID, Day 1, 6 h after first daily dose
[31] = HV 300 mg BID, Day 1, 8 h after first daily dose
[32] = HV 300 mg BID, Day 1, 12 h after first daily dose
[33] = HV 300 mg BID, Day 1, 16 h after first daily dose
[34] = HV 300 mg BID, Day 1, 24 h after first daily dose
[35] = HV 300 mg BID, Day 14, 0 h after first daily dose
[36] = HV 300 mg BID, Day 14, 6 h after first daily dose
[37] = HV 300 mg BID, Day 14, 8 h after first daily dose
[38] = HV 300 mg BID, Day 14, 12 h after first daily dose
[39] = HV 300 mg BID, Day 14, 16 h after first daily dose
[40] = HV 300 mg BID, Day 14, 24 h after first daily dose
[41] = HV 300 mg BID, Day 14, 48 h after first daily dose
[42] = HV 300 mg BID, Day 14, 72 h after first daily dose
[43] = HV 400 mg QD, Day 1, 0 h after first daily dose
[44] = HV 400 mg QD, Day 1, 6 h after first daily dose
[45] = HV 400 mg QD, Day 1, 8 h after first daily dose
[46] = HV 400 mg QD, Day 1, 12 h after first daily dose

Compound: O=C([C@H](CO)c1ccccc1)N1CC2=C(C1)CN(S(=O)(=O)c1cnc3c(c1)OCCO3)C2 (single isomer, unassigned) [Compound 1]
- Mean Percentage Change in ATP Levels [1]: 0%
- Median Percentage Change in ATP Levels [1]: 0%
- Mean Percentage Change in ATP Levels [2]: −5.6%
- Median Percentage Change in ATP Levels [2]: −5.7%
- Mean Percentage Change in ATP Levels [3]: −2.0%
- Median Percentage Change in ATP Levels [3]: 0.0%
- Mean Percentage Change in ATP Levels [4]: −0.6%
- Median Percentage Change in ATP Levels [4]: −1.2%
- Mean Percentage Change in ATP Levels [5]: 1.9%
- Median Percentage Change in ATP Levels [5]: 3.3%
- Mean Percentage Change in ATP Levels [6]: 4.4%
- Median Percentage Change in ATP Levels [6]: 5.7%
- Mean Percentage Change in ATP Levels [7]: 49%
- Median Percentage Change in ATP Levels [7]: 42%
- Mean Percentage Change in ATP Levels [8]: 45%
- Median Percentage Change in ATP Levels [8]: 44%
- Mean Percentage Change in ATP Levels [9]: 49%
- Median Percentage Change in ATP Levels [9]: 48%
- Mean Percentage Change in ATP Levels [10]: 45%
- Median Percentage Change in ATP Levels [10]: 45%
- Mean Percentage Change in ATP Levels [11]: 47%
- Median Percentage Change in ATP Levels [11]: 45%
- Mean Percentage Change in ATP Levels [12]: 55%
- Median Percentage Change in ATP Levels [12]: 55%
- Mean Percentage Change in ATP Levels [13]: 51%
- Median Percentage Change in ATP Levels [13]: 52%
- Mean Percentage Change in ATP Levels [14]: 47%
- Median Percentage Change in ATP Levels [14]: 49%
- Mean Percentage Change in ATP Levels [15]: 0%
- Median Percentage Change in ATP Levels [15]: 0%
- Mean Percentage Change in ATP Levels [16]: 1.7%
- Median Percentage Change in ATP Levels [16]: −4.3%
- Mean Percentage Change in ATP Levels [17]: 4.7%
- Median Percentage Change in ATP Levels [17]: 5.4%
- Mean Percentage Change in ATP Levels [18]: 6.7%
- Median Percentage Change in ATP Levels [18]: 4.3%
- Mean Percentage Change in ATP Levels [19]: 5.6%
- Median Percentage Change in ATP Levels [19]: 6.0%
- Mean Percentage Change in ATP Levels [20]: −0.2%
- Median Percentage Change in ATP Levels [20]: 1.1%
- Mean Percentage Change in ATP Levels [21]: 59%
- Median Percentage Change in ATP Levels [21]: 62%
- Mean Percentage Change in ATP Levels [22]: 50%
- Median Percentage Change in ATP Levels [22]: 48%
- Mean Percentage Change in ATP Levels [23]: 56%
- Median Percentage Change in ATP Levels [23]: 58%
- Mean Percentage Change in ATP Levels [24]: 56%
- Median Percentage Change in ATP Levels [24]: 56%
- Mean Percentage Change in ATP Levels [25]: 53%
- Median Percentage Change in ATP Levels [25]: 57%
- Mean Percentage Change in ATP Levels [26]: 66%
- Median Percentage Change in ATP Levels [26]: 65%
- Mean Percentage Change in ATP Levels [27]: 62%
- Median Percentage Change in ATP Levels [27]: 70%
- Mean Percentage Change in ATP Levels [28]: 57%
- Median Percentage Change in ATP Levels [28]: 54%
- Mean Percentage Change in ATP Levels [29]: 0%
- Median Percentage Change in ATP Levels [29]: 0%
- Mean Percentage Change in ATP Levels [30]: −4.5%
- Median Percentage Change in ATP Levels [30]: −7.6%
- Mean Percentage Change in ATP Levels [31]: −2.0%
- Median Percentage Change in ATP Levels [31]: −2.4%
- Mean Percentage Change in ATP Levels [32]: −0.6%
- Median Percentage Change in ATP Levels [32]: 0.9%
- Mean Percentage Change in ATP Levels [33]: −0.5%
- Median Percentage Change in ATP Levels [33]: −1.1%
- Mean Percentage Change in ATP Levels [34]: 2.2%
- Median Percentage Change in ATP Levels [34]: 1.8%
- Mean Percentage Change in ATP Levels [35]: 46%
- Median Percentage Change in ATP Levels [35]: 46%
- Mean Percentage Change in ATP Levels [36]: 51%
- Median Percentage Change in ATP Levels [36]: 51%
- Mean Percentage Change in ATP Levels [37]: 52%
- Median Percentage Change in ATP Levels [37]: 50%
- Mean Percentage Change in ATP Levels [38]: 49%
- Median Percentage Change in ATP Levels [38]: 51%
- Mean Percentage Change in ATP Levels [39]: 52%
- Median Percentage Change in ATP Levels [39]: 53%
- Mean Percentage Change in ATP Levels [40]: 56%
- Median Percentage Change in ATP Levels [40]: 52%
- Mean Percentage Change in ATP Levels [41]: 57%
- Median Percentage Change in ATP Levels [41]: 58%
- Mean Percentage Change in ATP Levels [42]: 48%
- Median Percentage Change in ATP Levels [42]: 49%
- Mean Percentage Change in ATP Levels [43]: 0%
- Median Percentage Change in ATP Levels [43]: 0%
- Mean Percentage Change in ATP Levels [44]: −1.2%
- Median Percentage Change in ATP Levels [44]: −1.7%
- Mean Percentage Change in ATP Levels [45]: −2.9%
- Median Percentage Change in ATP Levels [45]: −4.5%
- Mean Percentage Change in ATP Levels [46]: 2.4%
- Median Percentage Change in ATP Levels [46]: 3.5%
- Mean Percentage Change in ATP Levels (HV 400 mg QD, Day 1, 16 h after first daily dose): −2.2%
